Paper PMC6001238, “Iterative Chemical Engineering of Vancomycin Leads to Novel Vancomycin Analogs With a High in Vitro Therapeutic Index” (Frontiers in Microbiology, 2018)
≈ marks a conversion by molar mass, not a printed value.

Key:
[1] = system: L1210, CEM and HeLa cell lines; test: Cytostatic activity, average or summary over L1210, CEM and HeLa; assay type: cell-based; settings: average of L1210, CEM and HeLa; read-out: Toxicity (IC50) Average
Procedure, shortened: (§1)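 Coulter counter cell counts after 37°C culture with compound; IC50 = concentration giving 50% growth inhibition vs negative control. Incubation: L1210 2 d, CEM 3 d, HeLa 4 d. Suspension density before mixing with an equal volume of dilution: 300,000–500,000 cells/mL.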

[2] = system: Clostridium difficile ATJ ribotype 014/20; test: MIC, plate drop assay, C. difficile ATJ ribotype 014/20; assay type: cell-based; settings: for MIC-fold improvement vs. vancomycin: C. difficile ATJ ribotype 014/20
Description: (§2) Bacterial lawns of both C. difficile strains were prepared by adding 0.5 mL overnight culture to 8 mL sloppy BHI agar (0.4% agar) supplemented with 1.5 g/L CaCl2⋅2H2O and 81.2 g/L MgCl2⋅6H2O, and pouring the mixture into Petri plates. A twofold dilution series of the selected vancomycin analogs, vancomycin ([…]) and daptomycin (25 μM) was spotted (10 μL) on the bacterial lawn. Spots were air-dried and the plates were incubated overnight at 37°C in an anaerobic cabinet. Ultrapure water was included as negative control. The assay was performed in triplicate. Inhibition was observed by cleared spots.

S. aureus VRSA = test: MIC, broth microdilution, vancomycin-resistant S. aureus (VRSA); assay type: cell-based, Staphylococcus aureus; settings: for MIC: Staphylococcus aureus VRSA, read-out: MIC; for MIC-fold improvement vs. vancomycin: VRSA, ratio of MIC of vancomycin and MIC of analogue
Procedure, shortened: (§3)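 MIC values come from broth microdilution run to CLSI susceptibility-testing standards. Ultrapure water and uninoculated broth served as controls. In one series, vancomycin at a final 10 μM was co-dosed with the analogue or comparator antibiotic.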

[3] = system: S. aureus VSSA (ATCC 6538); test: MIC, broth microdilution, vancomycin-sensitive S. aureus (VSSA/MSSA, ATCC 6538); assay type: cell-based, Staphylococcus aureus; settings: for MIC: Staphylococcus aureus VSSA, read-out: MIC; for MIC-fold improvement vs. vancomycin: VSSA, ratio of MIC of vancomycin and MIC of analogue
Procedure, shortened: as §3

MRSA KS2 = test: MIC, broth microdilution, MRSA KS2; assay type: cell-based, Staphylococcus aureus; settings: for MIC-fold improvement vs. vancomycin: MRSA KS2, ratio of MIC of vancomycin and MIC of analogue; for MIC: Staphylococcus aureus MRSA KS2, read-out: MIC
Procedure, shortened: as §3

MRSA KS1 = test: MIC, broth microdilution, MRSA KS1; assay type: cell-based, Staphylococcus aureus; settings: for MIC-fold improvement vs. vancomycin: MRSA KS1, ratio of MIC of vancomycin and MIC of analogue; for MIC: Staphylococcus aureus MRSA KS1, read-out: MIC
Procedure, shortened: as §3

E. faecalis VRE 29 = test: MIC, broth microdilution, vancomycin-resistant E. faecalis VRE 29 (VanA); assay type: cell-based, Enterococcus faecalis; settings: for MIC: Enterococcus faecalis VRE 29 (vancomycin-resistant), read-out: MIC; for MIC-fold improvement vs. vancomycin: VRE 29, ratio of MIC of vancomycin and MIC of analogue
Procedure, shortened: as §3

E. faecalis VRE 6 = test: MIC, broth microdilution, vancomycin-resistant E. faecalis VRE 6 (VanA); assay type: cell-based, Enterococcus faecalis; settings: for MIC: Enterococcus faecalis VRE 6 (vancomycin-resistant), read-out: MIC; for MIC-fold improvement vs. vancomycin: VRE 6, ratio of MIC of vancomycin and MIC of analogue
Procedure, shortened: as §3

MRSA KS89 = test: MIC, broth microdilution, MRSA KS89; assay type: cell-based, Staphylococcus aureus; settings: for MIC-fold improvement vs. vancomycin: MRSA KS8, ratio of MIC of vancomycin and MIC of analogue; for MIC: Staphylococcus aureus MRSA KS8, read-out: MIC
Procedure, shortened: as §3

E. faecalis VRE 53 = test: MIC, broth microdilution, vancomycin-resistant E. faecalis VRE 53 (VanA); assay type: cell-based, Enterococcus faecalis; settings: for MIC: Enterococcus faecalis VRE 53 (vancomycin-resistant), read-out: MIC; for MIC-fold improvement vs. vancomycin: VRE 53, ratio of MIC of vancomycin and MIC of analogue
Procedure, shortened: as §3

[4] = system: Murine leukemia (L1210) cells; test: Cytostatic activity, L1210 cell proliferation; assay type: cell-based; settings: mean ± SD of three experiments; highest concentration tested 250 µM; 2 days; read-out: Toxicity (IC50) L1210
Procedure, shortened: as §1

E. faecalis VSE 1 = test: MIC, broth microdilution, vancomycin-sensitive E. faecalis (VSE 1); assay type: cell-based, Enterococcus faecalis; settings: for MIC: Enterococcus faecalis VSE 1 (vancomycin-sensitive), read-out: MIC; for MIC-fold improvement vs. vancomycin: VSE 1, ratio of MIC of vancomycin and MIC of analogue
Procedure, shortened: as §3

E. faecalis VRE 37 = test: MIC, broth microdilution, vancomycin-resistant E. faecalis VRE 37 (VanA); assay type: cell-based, Enterococcus faecalis; settings: for MIC: Enterococcus faecalis VRE 37 (vancomycin-resistant), read-out: MIC
Procedure, shortened: as §3

[5] = system: human cervix carcinoma (HeLa) cells; test: Cytostatic activity, HeLa cell proliferation; assay type: cell-based; settings: mean ± SD of three experiments; highest concentration tested 250 µM; 4 days; read-out: Toxicity (IC50) HeLa
Procedure, shortened: as §1

[6] = system: Clostridium difficile AIU ribotype 027; test: MIC, plate drop assay, C. difficile AIU ribotype 027; assay type: cell-based; settings: for MIC-fold improvement vs. vancomycin: C. difficile AIU ribotype 027
Description: as §2

MRSA KS6 = test: MIC, broth microdilution, MRSA KS6; assay type: cell-based, Staphylococcus aureus; settings: for MIC-fold improvement vs. vancomycin: MRSA KS6, ratio of MIC of vancomycin and MIC of analogue; for MIC: Staphylococcus aureus MRSA KS6, read-out: MIC
Procedure, shortened: as §3

S. aureus VISA/HIP5827 = test: MIC, broth microdilution, vancomycin-intermediate S. aureus VISA HIP5827; assay type: cell-based, Staphylococcus aureus; settings: for MIC: Staphylococcus aureus VISA/HIP5827, read-out: MIC; for MIC-fold improvement vs. vancomycin: VISA/HIP5827, ratio of MIC of vancomycin and MIC of analogue
Procedure, shortened: as §3

[7] = system: human T-lymphocyte (CEM) cells; test: Cytostatic activity, CEM cell proliferation; assay type: cell-based; settings: mean ± SD of three experiments; highest concentration tested 250 µM; 3 days; read-out: Toxicity (IC50) CEM
Procedure, shortened: as §1

Compound: CCCCC#Cc1ccc(/C=C/C(=O)NCCNC(=O)[C@H]2NC(=O)[C@H]3NC(=O)[C@H](NC(=O)[C@@H]4NC(=O)[C@H](CC(N)=O)NC(=O)[C@H](NC(=O)[C@@H](CC(C)C)NC)[C@H](O)c5ccc(c(Cl)c5)Oc5cc4cc(c5O[C@@H]4O[C@H](CO)[C@@H](O)[C@H](O)[C@H]4O[C@H]4C[C@](C)(N)[C@H](O)[C@H](C)O4)Oc4ccc(cc4Cl)[C@H]3O)c3ccc(O)c(c3)-c3c(O)cc(O)cc32)cc1 [Vanc-48]
- IC50 [1]: 158 µM
- MIC-fold improvement vs. vancomycin [2]: up to 45
- MIC ([2]; C. difficile ATJ ribotype 014/20, plate drop assay): 0.78 µM (≈ 1.33 µg/mL)
- MIC-fold improvement vs. vancomycin ([2]; listed as Vanc- 48): 45
- MIC (S. aureus VRSA): 1.56 µM (≈ 2.65 µg/mL)
- MIC-fold improvement vs. vancomycin (S. aureus VRSA): 64
- MIC [3]: 0.20 µM (≈ 0.34 µg/mL)
- MIC-fold improvement vs. vancomycin [3]: 4
- MIC-fold improvement vs. vancomycin (MRSA KS2): 4
- MIC (MRSA KS2): 0.20 µM (≈ 0.34 µg/mL)
- MIC-fold improvement vs. vancomycin (MRSA KS1): >8
- MIC (MRSA KS1): <0.10 µM
- MIC (E. faecalis VRE 29): 3.13 µM (≈ 5.33 µg/mL)
- MIC-fold improvement vs. vancomycin (E. faecalis VRE 29): 128
- MIC (E. faecalis VRE 6): 1.56 µM (≈ 2.65 µg/mL)
- MIC-fold improvement vs. vancomycin (E. faecalis VRE 6): 128
- MIC-fold improvement vs. vancomycin (MRSA KS89): 2
- MIC (MRSA KS89): 0.39 µM (≈ 0.664 µg/mL)
- MIC (E. faecalis VRE 53): 6.25 µM (≈ 10.6 µg/mL)
- MIC-fold improvement vs. vancomycin (E. faecalis VRE 53): 64
- IC50 [4]: 142 ± 21 µM
- MIC (E. faecalis VSE 1): 0.78 µM (≈ 1.33 µg/mL)
- MIC-fold improvement vs. vancomycin (E. faecalis VSE 1): 2
- MIC (E. faecalis VRE 37): 3.13 µM (≈ 5.33 µg/mL)
- MIC-fold improvement vs. vancomycin (E. faecalis VRE 37; VRE 37, ratio of MIC of vancomycin and MIC of analogue): 128
- IC50 [5]: > 250 µM
- MIC-fold improvement vs. vancomycin [6]: ≤ 58
- MIC ([6]; C. difficile AIU ribotype 027, plate drop assay): 0.78 µM (≈ 1.33 µg/mL)
- MIC-fold improvement vs. vancomycin ([6]; listed as Vanc- 48): 58
- MIC-fold improvement vs. vancomycin (MRSA KS6): 0.25
- MIC (MRSA KS6): 3.13 µM (≈ 5.33 µg/mL)
- MIC (S. aureus VISA/HIP5827): 1.56 µM (≈ 2.65 µg/mL)
- MIC-fold improvement vs. vancomycin (S. aureus VISA/HIP5827): 4
- IC50 [7]: 83 ± 11 µM

Compound: CNC(CC(C)C)C(=O)NC1C(=O)NC(CC(N)=O)C(=O)NC2C(=O)NC3C(=O)NC(C(=O)NC(C(=O)NCCCNC(=O)c4ccc5cc(OC)ccc5c4)c4cc(O)cc(O)c4-c4cc3ccc4O)C(O)c3ccc(c(Cl)c3)Oc3cc2cc(c3OC2OC(CO)C(O)C(O)C2OC2CC(C)(N)C(O)C(C)O2)Oc2ccc(cc2Cl)C1O (stereo not drawn) [Vanc-29]
- IC50 [1]: 185 µM
- MIC-fold improvement vs. vancomycin [2]: 5.6
- MIC (S. aureus VRSA): 3.13 µM (≈ 5.29 µg/mL)
- MIC-fold improvement vs. vancomycin (S. aureus VRSA): 32
- MIC [3]: 0.39 µM (≈ 0.659 µg/mL)
- MIC-fold improvement vs. vancomycin [3]: 2
- MIC-fold improvement vs. vancomycin (MRSA KS2): 2
- MIC (MRSA KS2): 0.39 µM (≈ 0.659 µg/mL)
- MIC-fold improvement vs. vancomycin (MRSA KS1): 2
- MIC (MRSA KS1): 0.39 µM (≈ 0.659 µg/mL)
- MIC (E. faecalis VRE 29): 6.25 µM (≈ 10.6 µg/mL)
- MIC-fold improvement vs. vancomycin (E. faecalis VRE 29): 64
- MIC (E. faecalis VRE 6): 1.56 µM (≈ 2.64 µg/mL)
- MIC-fold improvement vs. vancomycin (E. faecalis VRE 6): 128
- MIC-fold improvement vs. vancomycin (MRSA KS89): 2
- MIC (MRSA KS89): 0.39 µM (≈ 0.659 µg/mL)
- MIC (E. faecalis VRE 53): 25 µM (≈ 42.2 µg/mL)
- MIC-fold improvement vs. vancomycin (E. faecalis VRE 53): 16
- IC50 [4]: > 250 µM
- MIC (E. faecalis VSE 1): 0.20 µM (≈ 0.338 µg/mL)
- MIC-fold improvement vs. vancomycin (E. faecalis VSE 1): 8
- MIC (E. faecalis VRE 37): 12.5 µM (≈ 21.1 µg/mL)
- IC50 [5]: 54 ± 44 µM
- MIC-fold improvement vs. vancomycin [6]: 7
- MIC-fold improvement vs. vancomycin (MRSA KS6): 2
- MIC (MRSA KS6): 0.39 µM (≈ 0.659 µg/mL)
- MIC (S. aureus VISA/HIP5827): 0.39 µM (≈ 0.659 µg/mL)
- MIC-fold improvement vs. vancomycin (S. aureus VISA/HIP5827): 16
- IC50 [7]: > 250 µM
